Drawing on US12448392B2, “Spiropiperidine derivatives” (89BIO LTD, priority 2016, dated 2025), this text covers IC50 for 38 molecules.

T1 sequence (P49327 whole entry): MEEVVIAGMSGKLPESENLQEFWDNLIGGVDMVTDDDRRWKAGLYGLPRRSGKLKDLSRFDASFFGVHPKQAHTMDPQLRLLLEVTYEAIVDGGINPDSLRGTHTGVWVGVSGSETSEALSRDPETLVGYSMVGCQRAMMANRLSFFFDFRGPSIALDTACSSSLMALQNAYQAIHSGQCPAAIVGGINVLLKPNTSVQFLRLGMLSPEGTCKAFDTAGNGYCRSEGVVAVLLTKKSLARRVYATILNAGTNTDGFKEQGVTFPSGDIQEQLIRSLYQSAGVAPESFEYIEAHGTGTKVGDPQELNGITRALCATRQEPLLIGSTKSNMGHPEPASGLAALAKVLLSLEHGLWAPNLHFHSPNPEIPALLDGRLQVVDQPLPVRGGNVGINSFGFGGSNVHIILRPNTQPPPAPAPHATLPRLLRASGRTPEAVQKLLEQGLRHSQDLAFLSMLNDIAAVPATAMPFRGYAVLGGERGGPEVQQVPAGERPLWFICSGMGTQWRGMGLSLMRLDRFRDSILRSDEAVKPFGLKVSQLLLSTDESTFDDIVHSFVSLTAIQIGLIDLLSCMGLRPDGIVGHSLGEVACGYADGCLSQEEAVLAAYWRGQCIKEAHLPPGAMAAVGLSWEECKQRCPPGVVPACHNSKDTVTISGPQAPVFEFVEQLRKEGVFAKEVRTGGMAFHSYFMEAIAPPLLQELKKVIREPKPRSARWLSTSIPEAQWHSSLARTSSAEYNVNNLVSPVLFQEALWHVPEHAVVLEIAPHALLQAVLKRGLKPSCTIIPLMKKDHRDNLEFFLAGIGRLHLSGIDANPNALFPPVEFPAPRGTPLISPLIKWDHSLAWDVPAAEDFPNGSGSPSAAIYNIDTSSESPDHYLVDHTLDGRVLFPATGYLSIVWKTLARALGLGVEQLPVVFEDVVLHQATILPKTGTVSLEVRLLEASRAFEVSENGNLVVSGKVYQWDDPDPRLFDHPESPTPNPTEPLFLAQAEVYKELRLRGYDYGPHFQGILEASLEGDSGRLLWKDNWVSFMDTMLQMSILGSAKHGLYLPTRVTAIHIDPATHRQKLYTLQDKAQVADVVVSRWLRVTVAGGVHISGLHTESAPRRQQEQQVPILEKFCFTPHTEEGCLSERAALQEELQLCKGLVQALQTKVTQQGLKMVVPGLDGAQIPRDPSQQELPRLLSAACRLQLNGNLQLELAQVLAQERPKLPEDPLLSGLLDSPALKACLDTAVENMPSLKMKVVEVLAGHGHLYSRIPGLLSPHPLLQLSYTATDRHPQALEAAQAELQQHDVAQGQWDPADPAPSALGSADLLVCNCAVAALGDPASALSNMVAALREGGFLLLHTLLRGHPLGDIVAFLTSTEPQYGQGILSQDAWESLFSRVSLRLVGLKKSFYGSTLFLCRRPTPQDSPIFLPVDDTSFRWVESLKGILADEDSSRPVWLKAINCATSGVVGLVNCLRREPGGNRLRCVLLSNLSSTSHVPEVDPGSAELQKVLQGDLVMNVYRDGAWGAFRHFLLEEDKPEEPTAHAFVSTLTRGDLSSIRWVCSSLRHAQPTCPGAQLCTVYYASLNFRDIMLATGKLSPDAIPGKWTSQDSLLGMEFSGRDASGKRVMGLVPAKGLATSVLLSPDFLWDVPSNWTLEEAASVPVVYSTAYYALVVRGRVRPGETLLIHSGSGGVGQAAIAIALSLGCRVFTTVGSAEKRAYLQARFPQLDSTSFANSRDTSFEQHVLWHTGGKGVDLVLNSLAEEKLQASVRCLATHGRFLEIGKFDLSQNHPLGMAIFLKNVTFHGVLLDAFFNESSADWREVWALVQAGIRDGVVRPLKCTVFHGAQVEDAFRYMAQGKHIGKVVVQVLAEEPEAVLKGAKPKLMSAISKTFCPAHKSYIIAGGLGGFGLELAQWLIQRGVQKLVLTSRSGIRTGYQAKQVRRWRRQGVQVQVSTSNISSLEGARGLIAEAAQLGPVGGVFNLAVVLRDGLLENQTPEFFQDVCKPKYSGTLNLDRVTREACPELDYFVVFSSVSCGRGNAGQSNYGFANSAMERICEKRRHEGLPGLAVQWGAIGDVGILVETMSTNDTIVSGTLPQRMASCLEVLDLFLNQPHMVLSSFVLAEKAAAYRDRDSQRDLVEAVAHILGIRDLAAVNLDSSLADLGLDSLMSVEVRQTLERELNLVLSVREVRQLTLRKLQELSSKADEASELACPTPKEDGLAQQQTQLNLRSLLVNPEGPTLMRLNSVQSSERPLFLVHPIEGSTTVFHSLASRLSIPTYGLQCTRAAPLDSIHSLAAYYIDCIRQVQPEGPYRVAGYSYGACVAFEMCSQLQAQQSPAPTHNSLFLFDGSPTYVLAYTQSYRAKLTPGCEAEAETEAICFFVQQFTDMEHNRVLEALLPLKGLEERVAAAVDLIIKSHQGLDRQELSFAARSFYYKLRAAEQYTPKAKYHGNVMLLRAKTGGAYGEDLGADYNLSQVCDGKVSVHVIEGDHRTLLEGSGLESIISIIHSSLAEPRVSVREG

The first test has as its target T1, recombinant human baculovirus-expressed GST-tagged FASN (Homo sapiens, UniProt P49327).
T1 construct: GST
The test is described as follows: biochemical.
Settings: not given
As usually defined, the IC50 is the concentration that inhibits the measured activity by half. With `Cc1c(-c2ccc3c(c2)COC2(CCN(C(=O)NOC(C)C)CC2)O3)ccc2cccnc12` [Example 123, N-Isopropoxy-6-(8-methyl-7-quinolyl)spiro[4H-1,3-benzodioxine-2,4′-piperidine]-1′-carboxamide], the IC50 was in the range of 1 to 99 nM.

Take `CCNC(=O)N1CCC2(CC1)OCc1cc(-c3ccc4ccnn4c3C)ccc1O2` [Example 126, N-Ethyl-6-(7-methylpyrazolo[1,5-a]pyridin-6-yl)spiro[4H-1,3-benzodioxine-2,4′-piperidine]-1′-carboxamide]: the IC50 fell in the range of 1 to 99 nM.

As for `Cc1c(-c2ccc3c(c2)COC2(CCN(C(N)=O)CC2)O3)ccc2ccnn12` [Example 127, 6-(7-Methylpyrazolo[1,5-a]pyridin-6-yl)spiro[4H-1,3-benzodioxine-2,4′-piperidine]-1′-carboxamide], the IC50 was 100 to 999 nM.

In the case of `CONC(=O)N1CCC2(CC1)OCc1cc(-c3ccc4ccnn4c3C)ccc1O2` [Example 128, N-Methoxy-6-(7-methylpyrazolo[1,5-a]pyridin-6-yl)spiro[4H-1,3-benzodioxine-2,4′-piperidine]-1′-carboxamide], the IC50 was 1 to 99 nM.

Turning to `CCONC(=O)N1CCC2(CC1)OCc1cc(-c3ccc4ccnn4c3C)ccc1O2` [Example 129, N-Ethoxy-6-(7-methylpyrazolo[1,5-a]pyridin-6-yl)spiro[4H-1,3-benzodioxine-2,4′-piperidine]-1′-carboxamide], the IC50 was 1 to 99 nM.

Turning to `Cc1c(-c2ccc3c(c2)COC2(CCN(C(=O)NOC(C)C)CC2)O3)ccc2ccnn12` [Example 130, N-Isopropoxy-6-(7-methylpyrazolo[1,5-a]pyridin-6-yl)spiro[4H-1,3-benzodioxine-2,4′-piperidine]-1′-carboxamide], the 50% inhibitory concentration (IC50) was in the range of 1 to 99 nM.

As for `NC(=O)N1CCC2(CC1)OCc1cc(-c3ccc4cccnc4c3Cl)ccc1O2` [Example 131, 6-(8-Chloro-7-quinolyl)spiro[4H-1,3-benzodioxine-2,4′-piperidine]-1′-carboxamide], the half-maximal inhibitory concentration (IC50) was in the range of 100 to 999 nM.

For the molecule `Cc1c(-c2ccc3c(c2)COC2(CCN(C(N)=O)CC2)O3)cnc2ccccc12` [Example 132, 6-(4-Methyl-3-quinolyl)spiro[4H-1,3-benzodioxine-2,4′-piperidine]-1′-carboxamide], the half-inhibitory concentration (IC50) lay in the range of 100 to 999 nM.

As for `CONC(=O)N1CCC2(CC1)OCc1cc(-c3cnc4ccccc4c3C)ccc1O2` [Example 133, N-Methoxy-6-(4-methyl-3-quinolyl)spiro[4H-1,3-benzodioxine-2,4′-piperidine]-1′-carboxamide], the 50% inhibitory concentration (IC50) lay in the range of 1 to 99 nM.

With `CONC(=O)N1CCC2(CC1)OCc1cc(-c3ccc4cccnc4c3Cl)ccc1O2` [Example 134, 6-(8-Chloro-7-quinolyl)-N-methoxy-spiro[4H-1,3-benzodioxine-2,4′-piperidine]-1′-carboxamide], the concentration for half-maximal inhibition (IC50) was in the range of 1 to 99 nM.

In the case of `CCONC(=O)N1CCC2(CC1)OCc1cc(-c3ccc4cccnc4c3Cl)ccc1O2` [Example 135, 6-(8-Chloro-7-quinolyl)-N-ethoxy-spiro[4H-1,3-benzodioxine-2,4′-piperidine]-1′-carboxamide], the IC50 lay within 1 to 99 nM.

For the molecule `O=C(NO)N1CCC2(CC1)OCc1cc(-c3ccc4cccnc4c3Cl)ccc1O2` [Example 136, 6-(8-Chloro-7-quinolyl)spiro[4H-1,3-benzodioxine-2,4′-piperidine]-1′-carbohydroxamic acid], the IC50 lay within 100 to 999 nM.

Regarding `CCOC(=O)N1CCC2(CC1)OCc1cc(-c3ccc4cccnc4c3Cl)ccc1O2` [Example 137, Ethyl 6-(8-chloro-7-quinolyl)spiro[4H-1,3-benzodioxine-2,4′-piperidine]-1′-carboxylate], the IC50 lay within 1000 to 10000 nM.

Take `CCOC(=O)N1CCC2(CC1)OCc1cc(-c3cnc4ccccc4c3C)ccc1O2` [Example 138, Ethyl 6-(4-methyl-3-quinolyl)spiro[4H-1,3-benzodioxine-2,4′-piperidine]-1′-carboxylate]: the IC50 was in the range of 100 to 999 nM.

Consider `CCONC(=O)N1CCC2(CC1)OCc1cc(-c3cnc4ccccc4c3C)ccc1O2` [Example 139, N-Ethoxy-6-(4-methyl-3-quinolyl)spiro[4H-1,3-benzodioxine-2,4′-piperidine]-1′-carboxamide], for which the half-inhibitory concentration (IC50) was in the range of 1 to 99 nM.

`Cc1c(-c2ccc3c(c2)COC2(CCN(C(=O)NO)CC2)O3)cnc2ccccc12` [Example 140, 6-(4-Methyl-3-quinolyl)spiro[4H-1,3-benzodioxine-2,4′-piperidine]-1′-carbohydroxamic acid]: the 50% inhibitory concentration (IC50) was in the range of 1000 to 10000 nM.

`NC(=O)N1CCC2(CC1)OCc1cc(-c3cc4ccccc4cn3)ccc1O2` [Example 142, 6-(3-Isoquinolyl)spiro[4H-1,3-benzodioxine-2,4′-piperidine]-1′-carboxamide]: the IC50 fell in the range of 1000 to 10000 nM.

As to `O=C(NOC1CCCCO1)N1CCC2(CC1)OCc1cc(-c3cc4ccccc4cn3)ccc1O2` (centres unmarked) [Example 144, 6-(3-Isoquinolyl)-N-tetrahydropyran-2-yloxy-spiro[4H-1,3-benzodioxine-2,4′-piperidine]-1′-carboxamide], the half-maximal inhibitory concentration (IC50) was 100 to 999 nM.

Regarding `CCONC(=O)N1CCC2(CC1)OCc1cc(-c3cc4ccccc4cn3)ccc1O2` [Example 145, N-Ethoxy-6-(3-isoquinolyl)spiro[4H-1,3-benzodioxine-2,4′-piperidine]-1′-carboxamide], the IC50 is 1 to 99 nM.

Take `CONC(=O)N1CCC2(CC1)OCc1cc(-c3cc4ccccc4cn3)ccc1O2` [Example 147, 6-(3-Isoquinolyl)-N-methoxy-spiro[4H-1,3-benzodioxine-2,4′-piperidine]-1′-carboxamide]: the half-inhibitory concentration (IC50) was in the range of 1 to 99 nM.

`O=C(NO)N1CCC2(CC1)OCc1cc(-c3cc4ccccc4cn3)ccc1O2` [Example 150, 6-(3-Isoquinolyl)spiro[4H-1,3-benzodioxine-2,4′-piperidine]-1′-carbohydroxamic acid]: the IC50 was 1000 to 10000 nM.

Still in this test, the particulars now being: 5 nM FASN, 150 μM NADPH, 10 μM acetyl-CoA, 25 μM malonyl-CoA, 90 minutes incubation; read-out: IC50 data for Compounds of Formula I, Activity.
As for `CONC(=O)N1CCC2(CCc3cc(-c4ccc5ccnn5c4C)ccc3O2)CC1` [Example 124, N-Methoxy-6-(7-methylpyrazolo[1,5-a]pyridin-6-yl)spiro[chromane-2,4′-piperidine]-1′-carboxamide], the half-maximal inhibitory concentration (IC50) fell in the range of 1 to 99 nM.

Turning to `Cc1c(-c2ccc3c(c2)CCC2(CCN(C(=O)NO)CC2)O3)ccc2ccnn12` [Example 125, 6-(7-Methylpyrazolo[1,5-a]pyridin-6-yl)spiro[chromane-2,4′-piperidine]-1′-carbohydroxamic acid], the concentration for half-maximal inhibition (IC50) lay in the range of 1000 to 10000 nM.

Take `Cc1c(-c2ccc3c(c2)CCC2(CCN(C(=O)NO)CC2)O3)ccc2nccn12` [Example 141, 6-(5-Methylimidazo[1,2-a]pyridin-6-yl)spiro[chromane-2,4′-piperidine]-1′-carbohydroxamic acid]: the 50% inhibitory concentration (IC50) lay in the range of 1000 to 10000 nM.

`NC(=O)N1CCC2(CCc3cc(-c4cc5ccccc5cn4)ccc3O2)CC1` [Example 143, 6-(3-Isoquinolyl)spiro[chromane-2,4′-piperidine]-1′-carboxamide]: the IC50 is 1000 to 10000 nM.

In the case of `O=C(NOC1CCCCO1)N1CCC2(CCc3cc(-c4cc5ccccc5cn4)ccc3O2)CC1` (centres unmarked) [Example 146, 6-(3-Isoquinolyl)-N-tetrahydropyran-2-yloxy-spiro[chromane-2,4′-piperidine]-1′-carboxamide], the IC50 fell in the range of 100 to 999 nM.

On to `CONC(=O)N1CCC2(CCc3cc(-c4cc5ccccc5cn4)ccc3O2)CC1` [Example 148, 6-(3-Isoquinolyl)-N-methoxy-spiro[chromane-2,4′-piperidine]-1′-carboxamide], for which the half-maximal inhibitory concentration (IC50) lay in the range of 1 to 99 nM.

`CCONC(=O)N1CCC2(CCc3cc(-c4cc5ccccc5cn4)ccc3O2)CC1` [Example 149, N-Ethoxy-6-(3-isoquinolyl)spiro[chromane-2,4′-piperidine]-1′-carboxamide]: the 50% inhibitory concentration (IC50) was 1 to 99 nM.

In the case of `O=C(NO)N1CCC2(CCc3cc(-c4cc5ccccc5cn4)ccc3O2)CC1` [Example 151, 6-(3-Isoquinolyl)spiro[chromane-2,4′-piperidine]-1′-carbohydroxamic acid], the IC50 was in the range of 1000 to 10000 nM.

In the case of `Cc1c(-c2ccc3c(c2)CC2(CCN(C(N)=O)CC2)O3)ccc2cccnc12` [Example 152, 5-(8-Methyl-7-quinolyl)spiro[3H-benzofuran-2,4′-piperidine]-1′-carboxamide], the IC50 lay in the range of 1 to 99 nM.

`CONC(=O)N1CCC2(CC1)Cc1cc(-c3ccc4cccnc4c3C)ccc1O2` [Example 153, N-Methoxy-5-(8-methyl-7-quinolyl)spiro[3H-benzofuran-2,4′-piperidine]-1′-carboxamide]: the half-maximal inhibitory concentration (IC50) lay within 1000 to 10000 nM.

`CCONC(=O)N1CCC2(CC1)Cc1cc(-c3ccc4cccnc4c3C)ccc1O2` [Example 154, N-Ethoxy-5-(8-methyl-7-quinolyl)spiro[3H-benzofuran-2,4′-piperidine]-1′-carboxamide]: the IC50 fell in the range of 1000 to 10000 nM.

Turning to `Cc1c(-c2ccc3c(c2)CC2(CCN(C(=O)NO)CC2)O3)ccc2cccnc12` [Example 155, 5-(8-Methyl-7-quinolyl)spiro[3H-benzofuran-2,4′-piperidine]-1′-carbohydroxamic acid], the 50% inhibitory concentration (IC50) was in the range of 1000 to 10000 nM.

For the molecule `CCNC(=O)N1CCC2(CC1)Cc1cc(-c3ccc4cccnc4c3C)ccc1O2` [Example 156, N-Ethyl-5-(8-methyl-7-quinolyl)spiro[3H-benzofuran-2,4′-piperidine]-1′-carboxamide], the concentration for half-maximal inhibition (IC50) fell in the range of 1000 to 10000 nM.

With `CONC(=O)N1CCC2(CC1)Cc1cc(-c3cnc4ccccc4c3C)ccc1O2` [Example 157, N-Methoxy-5-(4-methyl-3-quinolyl)spiro[3H-benzofuran-2,4′-piperidine]-1′-carboxamide], the 50% inhibitory concentration (IC50) is 1000 to 10000 nM.

On to `CCONC(=O)N1CCC2(CC1)Cc1cc(-c3cnc4ccccc4c3C)ccc1O2` [Example 158, N-ethoxy-5-(4-methyl-3-quinolyl)spiro[3H-benzofuran-2,4′-piperidine]-1′-carboxamide], for which the half-maximal inhibitory concentration (IC50) lay within 1000 to 10000 nM.

Turning to `Cc1c(-c2ccc3c(c2)CC2(CCN(C(N)=O)CC2)O3)cnc2ccccc12` [Example 159, 5-(4-Methyl-3-quinolyl)spiro[3H-benzofuran-2,4′-piperidine]-1′-carboxamide], the IC50 lay in the range of 1000 to 10000 nM.

As to `CCNC(=O)N1CCC2(CC1)Cc1cc(-c3cnc4ccccc4c3C)ccc1O2` [Example 160, N-Ethyl-5-(4-methyl-3-quinolyl)spiro[3H-benzofuran-2,4′-piperidine]-1′-carboxamide], the IC50 fell in the range of 1000 to 10000 nM.
